Counter-ions that a name gives are not always drawn.
Tested on: kidney
Experiment: Transcriptional profiling on Affymetrix GeneChips, single dose, naïve mice: kidney
Type: in vivo, C57BL/6 mice
Settings: kidney; 100MMF-vs-Veh, 12 h
Procedure: Treated mice were sacrificed at 2, 7, or 12 hours. Tissues (liver, spleen, kidney, jejunum, cortex, hippocampus, striatum and whole blood) were collected and analyzed by transcriptional profiling on mouse Affymetrix GeneChips.
Tissues (liver, spleen, kidney, jejunum, cortex, hippocampus, striatum and whole blood) were collected and analyzed by transcriptional profiling on mouse Affymetrix GeneChips.
Animals were exposed to CO2 and whole blood collected via cardiac puncture. Two 100 μl aliquots of whole blood were collected in 1.5 mL microcentrifuge tubes and snap frozen in liquid nitrogen. Peripheral (liver, spleen, kidney and jejunum) and CNS brain (cerebellum, hippocampus, striatum and cortex) tissues were harvested and snap frozen in liquid nitrogen, with special care taken to collect tissues of similar size and from the same location. All samples were stored at −80° C. until RNA extraction was conducted.
For RNA preparation, frozen tissues were placed in 2 mL RNAse-free 96-well blocks with 1.5 mL QIAzol Lysis Reagent (QIAgen) and a 3.2 mm stainless steel bead (BioSpec Products, Bartlesville, Okla.). Tissues were disrupted for four cycles of 45 seconds in a Mini-Beadbeater (Biospec Products). RNA was extracted in chloroform and the aqueous phase was mixed with an equal volume of 70% ethanol. Extracted RNA was applied to RNeasy 96 plates and purified by the spin method according to the manufacturer's protocol (RNeasy 96 Universal Tissue Protocol, QIAgen, Hilden Germany).
Automated sample amplifications and biotin labelings were carried out using the NuGEN Ovation RNA Amplification system V2 (Cat #3100), Ovation WB reagent (Cat #1300) and Encore Biotin module (Cat #4200) (NuGEN Technologies, Inc, San Carlos, Calif.) according to manufacturer's recommendations using an Arrayplex automated liquid handler (Beckman Coulter, Indianapolis, Ind.). Two micrograms of biotin labeled sscDNA probe were hybridized to Affymetrix GeneChip Affymetrix HT_MG-430_PM plate arrays with modified conditions as described in Allaire et al. Washing and staining of the hybridized arrays were completed as described in the GeneChip Expression analysis technical manual for HT plate arrays using the Genechip® Array Station (Affymetrix, Santa Clara, Calif.) with modifications as described in Allaire et al. The processed GeneChip® plate arrays were scanned using GeneTitan scanner (Affymetrix, Santa Clara, Calif.).
Affymetrix scans were subject to quality control (QC) measures. These tests included a visual inspection of the distribution of raw signal intensities and an assessment of RNA degradation, relative log expression (RLE), and normalized unsealed standard error (NUSE). All sample scans that passed these QC metrics were included in the analysis.
All CEL files were subjected to GC-content-based Robust Multi-array Average (GCRMA) normalization (version 2.20.0) (Irizarry R A, et al. Nucleic Acids Res 2003; 31:e15; Li C, et al. Genome Biol 2001; 2:[…]0032). Expression levels were log (base 2) transformed.
All calculations and analyses were carried out using R (version 2.11.1) and Bioconductor computational tools (Gentleman R. Springer Science+Business Media 2005).

With `COC(=O)/C=C/C(=O)O` [MMF, monomethyl fumarate] the “FC 9130221J18Rik (1446368_PM_at)” value was −1.53, the “FC AB099516 /// Higd1c (1447356_PM_at)” value was −1.57 and the “FC Abcc3 (1428988_PM_at)” value was 1.64. The “FC Abcc4 1443870_PM_at” value was 2.07, the “FC Acot1 (1449065_PM_at)” value was 1.59 and the “FC Acsm2 (1427224_PM_at)” value was −1.52. The “FC Agps 1434919_PM_at” value was −1.80, the “FC Akr1b8 (1448894_PM_at)” value was 1.68 and the “FC Akr1c19 (1455454_PM_at)” value was 2.00. The “FC Alas1 1424126_PM_at” value was 2.02, the “FC Alas1 (1455282_PM_x_at)” value was 1.70 and the “FC Alcam 1426300_PM_at” value was 2.83. The “FC Alcam 1426301_PM_at” value was 2.09, the “FC Alcam 1437467_PM_at” value was 1.93 and the “FC Arg2 (1438841_PM_s_at)” value was 2.63. The “FC Arhgap26 (1440688_PM_at)” value was −1.57, the “FC Asns 1433966_PM_x_at” value was 2.49 and the “FC Asns 1451095_PM_at” value was 2.87. For the same compound, the “FC Atp13a3 1442145_PM_at” value was 1.62, the “FC B4galt5 (1433617_PM_s_at)” value was −1.51 and the “FC BC060267 (1441979_PM_at)” value was 1.74. The “FC Bcat1 1430111_PM_a_at” value was −2.07, the “FC Bcat1 1450871_PM_a_at” value was −2.20 and the “FC Bcat1 1455699_PM_at” value was −2.27. The “FC Blvrb (1451386_PM_at)” value was 2.23, the “FC C3 (1423954_PM_at)” value was 2.34 and the “FC C8a (1428012_PM_at)” value was −1.51. For the same compound, the “FC Cbr1 (1460196_PM_at)” value was 2.10, the “FC Cbr3 (1427912_PM_at)” value was 7.02 and the “FC Cdkn1a (1424638_PM_at)” value was 2.73. For the same compound, the “FC Chrdl1 (1456722_PM_at)” value was −1.55, the “FC Cldn1 (1437932_PM_a_at)” value was 1.57 and the “FC D16Ertd778e 1445089_PM_at” value was −2.25. The “FC Dcdc2a (1459661_PM_at)” value was 1.69, the “FC Dnase2a (1430135_PM_at)” value was 2.15 and the “FC Dpys (1436291_PM_a_at)” value was 1.51. For the same compound, the “FC Endou 1449937_PM_at” value was 1.89, the “FC Ep400 (1449610_PM_at)” value was −1.67 and the “FC Esr1 1460591_PM_at” value was −1.54. For the same compound, the “FC Esr1 (1435663_PM_at)” value was −1.75, the “FC Fga (1424279_PM_at)” value was 1.79 and the “FC Fgf1 1450869_PM_at” value was −1.58. The “FC G6pdx (1448354_PM_at)” value was 1.70, the “FC Gclc (1455959_PM_s_at)” value was 1.64 and the “FC Gjb1 1448766_PM_at” value was 1.81. The “FC Gjb1 (1448767_PM_s_at)” value was 1.67, the “FC Gm5101 (1442588_PM_at)” value was −1.50 and the “FC Gpr135 1441944_PM_s_at” value was 1.59. The “FC Gpr135 1459274_PM_at” value was 1.65, the “FC Gpt (1426502_PM_s_at)” value was 1.51 and the “FC Gstm1 (1425627_PM_x_at)” value was 1.56. For the same compound, the “FC Gstm1 (1448330_PM_at)” value was 1.54, the “FC Gstm4 (1424835_PM_at)” value was 1.70 and the “FC Gstp1 (1449575_PM_a_at)” value was 1.54. The “FC Havcr1 1434716_PM_at” value was 4.79, the “FC Hfe 1450702_PM_at” value was 1.67 and the “FC Hist1h1c (1438204_PM_at)” value was 1.82. The “FC Hist1h2be 1440330_PM_at” value was 2.92, the “FC Hist1h2be (1445565_PM_at)” value was 2.48 and the “FC Ikbkg 1435646_PM_at” value was 1.76. For the same compound, the “FC Ikbkg 1454690_PM_at” value was 1.54, the “FC Kif20b 1439695_PM_a_at” value was −2.85 and the “FC Klk1b21 (1451607_PM_at)” value was 1.57. For the same compound, the “FC Lcp1 1448160_PM_at” value was 1.54, the “FC Lpar2 1442291_PM_at” value was 1.93 and the “FC Lrat (1444487_PM_at)” value was 1.72. For the same compound, the “FC Maf (1435828_PM_at)” value was 1.53, the “FC Maf (1447849_PM_s_at)” value was 1.54 and the “FC Myo5a (1431320_PM_a_at)” value was −2.35. The “FC Myo5a (1436051_PM_at)” value was −2.04, the “FC Nfia (1446742_PM_at)” value was −1.74 and the “FC Nqo1 (1423627_PM_at)” value was 2.11. The “FC Pank1 1457110_PM_at” value was −1.73, the “FC Pank2 1452733_PM_at” value was −1.97 and the “FC Pgd 1423706_PM_a_at” value was 2.27. For the same compound, the “FC Pgd 1438627_PM_x_at” value was 1.83, the “FC Pgd (1436771_PM_x_at)” value was 2.03 and the “FC Pgd (1437380_PM_x_at)” value was 2.05. For the same compound, the “FC Phlda3 (1449002_PM_at)” value was 1.81, the “FC Pigl (1440965_PM_at)” value was 1.52 and the “FC Pir (1429001_PM_at)” value was 3.08. For the same compound, the “FC Ptprr (1426047_PM_a_at)” value was 1.69, the “FC Rcor3 (1428343_PM_at)” value was −1.51 and the “FC Reep6 (1430128_PM_a_at)” value was 1.51. The “FC Rnf24 1436101_PM_at” value was −2.01, the “FC Slc5a3 (1440227_PM_at)” value was −1.50 and the “FC Slc8a1 (1437675_PM_at)” value was −1.86. For the same compound, the “FC Slc9a8 1454865_PM_at” value was −2.40, the “FC Slc22a14 (1440058_PM_at)” value was 1.54 and the “FC Slc39a8 (1448482_PM_at)” value was −1.55. The “FC Slc48a1 (1450409_PM_a_at)” value was 1.53, the “FC Slco2a1 (1444242_PM_at)” value was 1.63 and the “FC Slco4c1 (1437870_PM_at)” value was −1.69. For the same compound, the “FC Slco4c1 (1460616_PM_at)” value was −2.08, the “FC Smarca2 (1452333_PM_at)” value was −1.60 and the “FC Srxn1 (1425351_PM_at)” value was 1.89. For the same compound, the “FC Srxn1 (1426875_PM_s_at)” value was 1.91, the “FC Srxn1 (1451680_PM_at)” value was 2.09 and the “FC Tmc5 (1452934_PM_at)” value was 1.91. The “FC Tmie (1443964_PM_at)” value was 1.65, the “FC Trim16 (1460629_PM_at)” value was 1.51 and the “FC Txnrd1 (1424487_PM_x_at)” value was 1.74. The “FC Vps8 (1434050_PM_at)” value was −1.84 and the “FC Vps8 (1454810_PM_s_at)” value was −1.55.
